Source: patent US4740505A, “Pyridazinyloxy (or thio) phenyl phosphates” (priority 1985, dated 1988)
Read-outs that look alike come from different tables or passages of the source.

What was measured:
[1] = test system: Tetranychus urticae; assay: Effectiveness on Tetranychus urticae (rating of effects on kidney bean seedlings); assay type: in vivo; conditions: 500 ppm, 20 ml, rating based on percent decrease; for Rating of effect Day-2: 2nd day after treatment; for Rating of effect Day-7: 7th day after treatment
Description: Effectiveness on Tetranychus urticae
Each of the compounds listed in the following table is processed into an emulsifiable concentrate in accordance with the formulation of Example 6. The emulsifiable concentrate is diluted with water (Dyne®, a spreading agent produced by Takeda Chemical Ind. Ltd., as diluted 3,000-fold) to prepare a 500 ppm aqueous solution. Ten female adult of Tetranychus urticae are put into each kidney been seedling raised in a jiffy pot (6 cm in diameter), and left in a glass house at 28° C. for 24 hours. Each pot is taken out of the glass house; 20 ml of the aqueous solution as prepared above is spread over each kidney bean seedling. The jiffy pots are laid in the glass house again. Larvae and adult which are alive on the leaves are counted at the 2nd and 7th days after the spreading treatment. The test is repeated two times. The degrees are determined on the basis of percent decrease.

[2] = Toxicological test: oral acute toxicity in mice; set-up: species or system mice (ddY-SLC strained male); conditions: mouse, in vivo, five-week aged ddY-SLC male mice
[3] = test system: Spodoptera litura; assay: Effectiveness on Spodoptera litura (mortality of 3rd instar larvae on sprayed soybean leaves); assay type: in vivo
Description: Effectiveness of Spondoptera litura
Each of the test compounds listed in the following table is processed into an emulsifiable concentrate in accordance with the formulation of Example 6. The emulsifiable concentrate is diluted with water (Dyne®, a spreading agent produced by Takeda Chemical Ind. Ltd., as diluted 3,000-fold) to prepare a 100 ppm aqueous solution.
Using a spray gun (nozzle pressure of 1 kg/cm^2 gauge), 20 ml of the aqueous 100 ppm solution is sprayed over soybean seedlings in a spraying chamber (on 10th day after germination) which have been raised in jiffy pots (6 cm in diameter). Two main leaves are respectively cut off from the seedlings 2 hours and 6 days after the spraying. Each of the leaves is put into an ice cream cup (diameter: 6 cm, depth: 4 cm), and 10 larvae of Spodoptera litura at the 3rd instar are put into each of the cups. The cups are left in a room at 25° C.; after 48 hours, dead larvae are counted. The test is repeated two times. The results are shown in terms of mortality (%) in Table 6. [formula]
The following compounds are used for controls.
The same compounds are used for controls also in the following Test Examples.

[4] = 100 ppm spray, leaves cut 6 days after spraying, dead larvae counted after 48 hours, 25° C., read-out: Mortality 6th day after spraying
[5] = 48 h, read-out: Mortality 2 hours after spraying

Structure (SMILES)	Rating of effect Day-2 [1]	Rating of effect Day-7 [1]	LD50 [2] [mg/kg]	mortality at 100 ppm [3, 4] [%]	mortality at 100 ppm [3, 5] [%]
CCCSP(=S)(OCC)Oc1ccccc1Oc1ccc(Br)nn1 (stereo not shown) [compound 25]	3 (≥90)	3 (≥90)	> 300	100	100
CCCSP(=O)(OCC)Oc1ccccc1Sc1ccc(Br)nn1 (stereo not shown) [compound 26]	3 (≥90)	3 (≥90)	~300	95	100
CCCSP(=S)(OCC)Oc1ccccc1Oc1ccc(C)nn1 (stereo not shown) [compound 38]	3 (≥90)	3 (≥90)	> 300	100	100
CCCSP(=O)(OCC)Oc1ccccc1Oc1ccc(SCC)nn1 (stereo not shown) [compound 41]	3 (≥90)	3 (≥90)	~300	100	100
CCCSP(=S)(OCC)Oc1ccccc1Oc1ccc(SCC)nn1 (stereo not shown) [compound 42]	3 (≥90)	3 (≥90)	> 300	100	100
